The record followed here is patent publication EP4806900A2, “RAS INHIBITORS” (Revolution Medicines, Inc., priority 2019, dated 2021).

pIC50: −log10 of the molar value.

The assay relates to NCI-H358 (K-Ras G12C). Put plainly: CellTiter-Glo cell viability assay, NCI-H358. It counts as cell-based, human. Conditions: Table 5; read-out: H358 Cell Viability assay data (K-Ras G12C, IC50). On the procedure:
Note - The following protocol describes a procedure for monitoring cell viability of K-Ras mutant cancer cell lines in response to a compound of the invention. Other RAS isoforms may be employed, though the number of cells to be seeded will vary based on cell line used.
Test compounds (132.5 nL) were directly dispensed into the assay plates containing cells. […] On day 5, assay plates and their contents were equilibrated to room temperature for approximately 30 minutes. […] Luminescence was measured using the PerkinElmer Enspire. Data were normalized by the following: (Sample signal/Avg. DMSO)*100. The data were fit using a four-parameter logistic fit.
As usually defined, the pIC50 is the negative decadic logarithm of the IC50, by convention in mol/L. For `C=CC(=O)N1CC[C@H](C(=O)N(C)[C@H](C(=O)N[C@H]2Cc3cc(O)cc(c3)-c3ccc4c(c3)c(c(-c3cccnc3COCC)n4CC)CC(C)(C)COC(=O)[C@@H]3CCCN(N3)C2=O)C(C)C)C1` [Compound A44], the negative-log IC50 (pIC50) was 7.00 to 8.00.

`C=CC(=O)N1CC[C@H](C(=O)N(C)[C@H](C(=O)N[C@H]2Cc3cc(O)cc(c3)-c3ccc4c(c3)c(c(-c3cccnc3)n4CC)CC(C)(C)COC(=O)[C@@H]3CCCN(N3)C2=O)C(C)C)C1` [Compound A45]: the negative logarithm of the IC50 (pIC50) is 7.00 to 8.00.

As to `CCn1c(-c2ccccc2CN(C)C)c2c3cc(ccc31)-c1cc(O)cc(c1)C[C@H](NC(=O)[C@H](C(C)C)N(C)C(=O)c1ccc(NC(=O)/C=C/CN(C)C)cn1)C(=O)N1CCC[C@H](N1)C(=O)OCC(C)(C)C2` [Compound A46], the pIC50 is < 6.00.

Regarding `CCn1c(-c2ccccc2CN(C)C)c2c3cc(ccc31)-c1cc(O)cc(c1)C[C@H](NC(=O)[C@H](C(C)C)N(C)C(=O)[C@H]1CCN(C(=O)/C=C/CN(C)C)C1)C(=O)N1CCC[C@H](N1)C(=O)OCC(C)(C)C2` [Compound A47], the negative-log IC50 (pIC50) is 7.00 to 8.00.

Take `CCn1c(-c2ccccc2CN(C)C)c2c3cc(ccc31)-c1cc(O)cc(c1)C[C@H](NC(=O)[C@H](C(C)C)N(C)C(=O)c1ccc(NC(=O)/C=C/CN(C)C)cc1)C(=O)N1CCC[C@H](N1)C(=O)OCC(C)(C)C2` [Compound A49]: the pIC50 is < 6.00.

On to `C=CC(=O)N1CC[C@H](C(=O)N(C)[C@H](C(=O)N[C@H]2Cc3cc(O)cc(c3)-c3ccc4c(c3)c(c(-c3ccc5c(c3)OCCN5C)n4CC)CC(C)(C)COC(=O)[C@@H]3CCCN(N3)C2=O)C(C)C)C1` [Compound A50], for which the negative-log IC50 (pIC50) was 6.00 to 7.00.

As to `C=CC(=O)N1CC[C@H](C(=O)N(C)[C@H](C(=O)N[C@H]2Cc3cc(O)cc(c3)-c3ccc4c(c3)c(c(-c3ccc(CN(C)C)cc3COC)n4CC)CC(C)(C)COC(=O)[C@@H]3CCCN(N3)C2=O)C(C)C)C1` [Compound A51], the pIC50 was 7.00 to 8.00.

Consider `C=CC(=O)N1C[C@H](C)[C@H](C(=O)N(C)[C@H](C(=O)N[C@H]2Cc3cc(O)cc(c3)-c3ccc4c(c3)c(c(-c3ccccc3CN(C)C)n4CC)CC(C)(C)COC(=O)[C@@H]3CCCN(N3)C2=O)C(C)C)C1` [Compound A52], for which the pIC50 was 7.00 to 8.00.

As to `C=CC(=O)N1CC[C@H](C(=O)N(C)[C@H](C(=O)N[C@H]2Cc3cc(O)cc(c3)-c3cc(F)c4c(c3)c(c(-c3ccccc3CCOC)n4CC)CC(C)(C)COC(=O)[C@@H]3CCCN(N3)C2=O)C(C)C)C1` [Compound A53], the pIC50 was 6.00 to 7.00.

Consider `CCn1c(-c2cccnc2COC)c2c3cc(ccc31)-c1cc(O)cc(c1)C[C@H](NC(=O)[C@H](C(C)C)N(C)C(=O)[C@H]1CCN(C(=O)/C=C/CN(C)C)C1)C(=O)N1CCC[C@H](N1)C(=O)OCC(C)(C)C2` [Compound A54, (2S)-2-{1-[(3S)-1-[(2E)-4-(dimethylamino)but-2-enoyl]pyrrolidin-3-yl]-N-methylformamido}-N-[(8S,14S)-22-ethyl-4-hydroxy-21-[2-(methoxymethyl)pyridin-3-yl]-18,18-dimethyl-9,15-dioxo-16-oxa-10,22,28-triazapentacyclo[18.5.2.1^2,^6.1^10,^14.0^23,^27]nonacosa-1(26),2,4,6(29),20,23(27),24-heptaen-8-yl]-3-methylbutanamide], for which the pIC50 was 7.00 to 8.00.

For `C=CC(=O)N1CC[C@H](C(=O)N(C)[C@H](C(=O)N[C@H]2Cc3cc(O)cc(c3)-c3ccc4c(c3)c(c(-c3cccnc3COC)n4CC)CC(C)(C)COC(=O)[C@@H]3CCCN(N3)C2=O)C2CCCC2)C1` [Compound A55], the negative logarithm of the IC50 (pIC50) was > 8.00.

Regarding `C=CC(=O)N1C[C@H](C)[C@H](C(=O)N(C)[C@H](C(=O)N[C@H]2Cc3cc(O)cc(c3)-c3ccc4c(c3)c(c(-c3cccnc3COC)n4CC)CC(C)(C)COC(=O)[C@@H]3CCCN(N3)C2=O)C(C)C)C1` [Compound A56], the pIC50 was > 8.00.

With `C=CC(=O)N1C[C@H](C)[C@H](C(=O)N(C)[C@H](C(=O)N[C@H]2Cc3cc(O)cc(c3)-c3ccc4c(c3)c(c(-c3cccnc3COC)n4CC)CC(C)(C)COC(=O)[C@@H]3CCCN(N3)C2=O)C2CCCC2)C1` [Compound A57], the negative-log IC50 (pIC50) was > 8.00.

Turning to `C=CC(=O)N1CC[C@H](C(=O)N(C)[C@H](C(=O)N[C@H]2Cc3cc(O)cc(c3)-c3ccc4c(c3)c(c(C3=C(COC)COCC3)n4CC)CC(C)(C)COC(=O)[C@@H]3CCCN(N3)C2=O)C(C)C)C1` [Compound A58], the negative logarithm of the IC50 (pIC50) was 7.00 to 8.00.

Take `C=CC(=O)N1CC[C@H](C(=O)N(C)[C@H](C(=O)N[C@H]2Cc3cc(OC(C)=O)cc(c3)-c3ccc4c(c3)c(c(-c3ccccc3CN(C)C)n4CC)CC(C)(C)COC(=O)[C@@H]3CCCN(N3)C2=O)C(C)C)C1` [Compound A59]: the pIC50 is 6.00 to 7.00.

For the compound `C=CC(=O)N1CC[C@H](C(=O)N(C)[C@H](C(=O)N[C@H]2Cc3cc(O)cc(c3)-c3ccc4c(c3)c(c(-c3cccnc3N3CC(OC)C3)n4CC)CC(C)(C)COC(=O)[C@@H]3CCCN(N3)C2=O)C(C)C)C1` [Compound A60], the pIC50 was 7.00 to 8.00.

In the case of `C=CC(=O)N1CC[C@H](C(=O)N(C)[C@H](C(=O)N[C@H]2Cc3cc(O)cc(c3)-c3ccc4c(c3)c(c(-c3cncnc3)n4CC)CC(C)(C)COC(=O)[C@@H]3CCCN(N3)C2=O)C(C)C)C1` [Compound A61], the pIC50 was 7.00 to 8.00.

Regarding `C=CC(=O)N1CC[C@H](C(=O)N(C)[C@H](C(=O)N[C@H]2Cc3cc(O)cc(c3)-c3ccc4c(c3)c(c(-c3cncc(C#N)c3)n4CC)CC(C)(C)COC(=O)[C@@H]3CCCN(N3)C2=O)C(C)C)C1` [Compound A62], the pIC50 is 7.00 to 8.00.

As for `C=CC(=O)N1CC[C@H](C(=O)N(C)[C@H](C(=O)N[C@H]2Cc3cc(O)cc(c3)-c3ccc4c(c3)c(c(C3=C(COC)CCCC3)n4CC)CC(C)(C)COC(=O)[C@@H]3CCCN(N3)C2=O)C(C)C)C1` [Compound A64], the negative-log IC50 (pIC50) was 7.00 to 8.00.

With `C=CC(=O)N1CC[C@H](C(=O)N(C)[C@H](C(=O)N[C@H]2Cc3cc(O)cc(c3)-c3ccc4c(c3)c(c([C@@H]3CC=CN=C3COC)n4CC)CC(C)(C)COC(=O)[C@@H]3CCCN(N3)C2=O)C(C)C)C1` [Compound A65], the pIC50 is 6.00 to 7.00.

As for `C=CC(=O)N1CC[C@H](C(=O)N(C)[C@H](C(=O)N[C@H]2Cc3cc(O)cc(c3)-c3ccc4c(c3)c(c(-c3cccnc3COC)n4C)CC(C)(C)COC(=O)[C@@H]3CCCN(N3)C2=O)C(C)C)C1` [Compound A66], the pIC50 was 7.00 to 8.00.

On to `CCn1c(-c2cccnc2COC)c2c3cc(ccc31)-c1cc(O)cc(c1)C[C@H](NC(=O)[C@H](C(C)C)N(C)C(=O)c1ccc(NC(=O)/C=C/CN(C)C)cn1)C(=O)N1CCC[C@H](N1)C(=O)OCC(C)(C)C2` [Compound A67, (2E)-4-(dimethylamino)-N-(6-{[(1S)-1-{[(8S,14S)-22-ethyl-4-hydroxy-21-[2-(methoxymethyl)pyridin-3-yl]-18,18-dimethyl-9,15-dioxo-16-oxa-10,22,28-triazapentacyclo[18.5.2.1^2,^6.1^10,^14.0^23,^27]nonacosa-1(26),2,4,6(29),20,23(27),24-heptaen-8-yl]carbamoyl}-2-methylpropyl](methyl)carbamoyl}pyridin-3-yl)but-2-enamide], for which the pIC50 is 6.00 to 7.00.

As for `C=CC(=O)N1CC[C@@]2(CCN([C@H](C(=O)N[C@H]3Cc4cc(O)cc(c4)-c4ccc5c(c4)c(c(-c4ccccc4CCOC)n5CC)CC(C)(C)COC(=O)[C@@H]4CCCN(N4)C3=O)C(C)C)C2=O)C1` [Compound A68], the pIC50 is 6.00 to 7.00.

`C=CS(=O)(=O)N1CC[C@H](C(=O)N(C)[C@H](C(=O)N[C@H]2Cc3cc(O)cc(c3)-c3ccc4c(c3)c(c(-c3cccnc3COC)n4CC)CC(C)(C)COC(=O)[C@@H]3CCCN(N3)C2=O)C(C)C)C1` [Compound A69]: the pIC50 is 7.00 to 8.00.

In the case of `C=CC(=O)N1CC(C(=O)N(C)[C@H](C(=O)N[C@H]2Cc3cc(O)cc(c3)-c3ccc4c(c3)c(c(-c3cccnc3COC)n4CC)CC(C)(C)COC(=O)[C@@H]3CCCN(N3)C2=O)C(C)C)C1` [Compound A70], the pIC50 was 7.00 to 8.00.

Regarding `CCn1c(-c2cccnc2COC)c2c3cc(ccc31)-c1cc(O)cc(c1)C[C@H](NC(=O)[C@H](C(C)C)N(C)C(=O)C1CN(C(=O)/C=C/CN(C)C)C1)C(=O)N1CCC[C@H](N1)C(=O)OCC(C)(C)C2` [Compound A71, (2S)-2-(1-{1-[(2E)-4-(dimethylamino)but-2-enoyl]azetidin-3-yl}-N-methylformamido)-N-[(8S,14S)-22-ethyl-4-hydroxy-21-[2-(methoxymethyl)pyridin-3-yl]-18,18-dimethyl-9,15-dioxo-16-oxa-10,22,28-triazapentacyclo[18.5.2.1^2,6.1^10,^14.0^23,^27]nonacosa-1(26),2,4,6(29),20,23(27),24-heptaen-8-yl]-3-methylbutanamide], the pIC50 was 6.00 to 7.00.

`CCn1c(-c2cccnc2COC)c2c3cc(ccc31)-c1cc(O)cc(c1)C[C@H](NC(=O)[C@H](C(C)C)N(C)C(=O)[C@H]1CCN(C(=O)/C=C/CN3CCN(C)CC3)C1)C(=O)N1CCC[C@H](N1)C(=O)OCC(C)(C)C2` [Compound A72]: the pIC50 was < 6.00.

On to `C=CC(=O)N1CC[C@H](C(=O)N(C)[C@H](C(=O)N[C@H]2Cc3cc(O)cc(c3)-c3ccc4c(c3)c(c(-c3cncc(CN(C)C)c3)n4CC)CC(C)(C)COC(=O)[C@@H]3CCCN(N3)C2=O)C(C)C)C1` [Compound A73], for which the pIC50 is 7.00 to 8.00.

Consider `C=CC(=O)N1CC[C@H](C(=O)N(C)[C@H](C(=O)N[C@H]2Cc3cc(O)cc(c3)-c3ccc4c(c3)c(c(-c3cccnc3)n4C(C)(C)C#N)CC(C)(C)COC(=O)[C@@H]3CCCN(N3)C2=O)C(C)C)C1` [Compound A74], for which the pIC50 was 7.00 to 8.00.
